Results taken from paper PMC10808720 (Frontiers in Pharmacology, 2024).

Columns and labels:
[1] = Cytotoxicity assay (AlamarBlue); type: cell-based, Human; conditions: human, A549 cells
Description: The cytotoxicity of the molecules was analyzed using the commercial kit AlamarBlue® (Invitrogen, Ref. DAL1025) according to the manufacturer’s instructions. Briefly, A549 cells were seeded at a density of 5 × 10^3 cells per well in 96-well plates, and decreasing serial dilutions of each molecule were diluted in 100 μL of DMEM starting at 200 μM. The cells were then incubated at 37°C for 48 h following the manufacturer’s protocol. The cytotoxic concentration 50% (CC50) value was obtained using the statistical software GraphPad Prism 6. The assay was performed in duplicate.

[2] = system: HAdV5-GFP; experiment: HAdV time of addition assay; type: cell-based, human adenovirus (HAdV5); conditions: 10-fold IC50
Description: The anti-HAdV effect of these natural compounds at different time-points was measured through a time-curve assay using 293β5 cells (3 × 10^4 cells/well in Corning black wall, clear bottom 96-well plates) infected with HAdV5-GFP (MOI 2,000 vp/cell) in the presence of 100 μL of complete DMEM containing 10-fold IC50 concentration of each comound obtained in the plaque assay for each compound or the same volume of DMSO (positive control). A standard infection curve was generated in parallel by infecting cells in the absence of compounds using 2-fold serial dilutions of the virus from an MOI of 2,000 vp/cell in order to extrapolate the GFP resulting from each molecule with its corresponding MOI.
Parallel samples of HAdV5 were incubated with or without the selected compounds on ice for 1 h. HAdV5 was then added to 293β5 cells and incubated at 37°C. Compounds were then added at the indicated time points until the last time point at 2 h. Then, the cells were incubated for an additional 48 h at 37°C and 5% CO2 before being analyzed for GFP expression using a Typhoon 9410 imager (GE Healthcare Life Sciences) and ImageQuantTL (GE Healthcare Life Sciences), as we described earlier.

[3] = animals; ref Ray et al., 1991; Vats, 2018; Vats and Mehre, 2020; cited from earlier work
[4] = system: wild-type HAdV5; experiment: Nuclear-associated HAdV genomes (qPCR after nuclear isolation); type: cell-based, human adenovirus (HAdV5); conditions: 10-fold IC50; 45 min after synchronized infection; A549
Description: Nuclear delivery of HAdV genomes was assessed using qPCR following nuclear isolation from infected cells. Briefly, 1 × 10^6 A549 cells in 6-well plates were infected either with wild-type HAdV5 at an MOI of 2,000 vp/cell in the presence of a 10-fold IC50 concentration of the compounds obtained in the plaque assay or the same volume of DMSO as the positive control. Forty-five minutes after infection, the A549 cells were trypsinized, collected, and washed twice with PBS. The cell pellet was resuspended in 500 μL of 1×hypotonic buffer (20 mM Tris-HCl pH 7.4, 10 mM NaCl, 3 mM MgCl2) and incubated for 15 min at 4°C. Then, 25 μL of NP-40 was added and the samples were vortexed. The homogenates were centrifuged for 10 min at 835 g at 4°C. Following the removal of the cytoplasmic fraction (supernatant), HAdV DNA was isolated from the nuclear (pellet) and cytoplasmic fractions using the E.Z.N.A.® Tissue DNA Kit (Omega Bio-tek, Norcross, GA).

[5] = system: wild-type HAdV5; experiment: HAdV/tubulin colocalization (confocal microscopy); type: cell-based, human adenovirus (HAdV5); conditions: 0.05 μM; 90 min after synchronized infection; A549
Description: The coverslips were previously washed with acetone, distilled water and absolute ethanol sequentially, and washed with 1x PBS, and treated with poly-L-lysine (Merck, Darmstadt, Germany) for 1 h, and washed again twice with 1x PBS. […] The infection was synchronized for 1 h on ice, excess virus was removed, and the cells were incubated for 90 min at 37°C and 5% CO2. Finally, the cells were fixed with methanol/acetone 50% for 10 min at −20°C whereupon nonspecific unions were blocked with PBS/BSA 10% for 1 h at room temperature. The cells were then incubated with hexon protein mouse monoclonal IgG (DSHB, Iowa City, USA) and anti-gamma-tubulin antibody marked by Alexa Fluor® 647 (Abcam, Cambridge, UK) for 60 min at room temperature. After rinsing with 1x PBS, the cells were incubated with Alexa Fluor 488 goat anti-mouse IgG (Thermo Fisher Scientific, MA, USA) for 20 min at room temperature, and DAPI (Merck) was added for 5 min to stain the nucleus. Finally, coverslips were fixed on the slides with a mounting medium prepared from one part of 10x PBS and 9 parts of glycerol and stored in the dark overnight at 4°C. […] The Z-series was analyzed by first determining the region of interest and then measuring the fluorescence signal using ImageJ.

[6] = system: HAdV5-GFP; experiment: microbe, parasite or virus in culture; type: cell-based, human adenovirus (HAdV5); conditions: Human adenovirus sp.
Description: Compounds were tested using low MOI infections (0.06 vp/cell), initially at concentrations of 10 μM and subsequently in a dose-response assay ranging from 10 μM to 2.44 nM in a plaque assay. Briefly, 293β5 cells were seeded in 6-well plates at a density of 1 × 10^6 cells per well in duplicate for each condition. When the cells reached 80%–90% confluency, they were infected with HAdV5-GFP and rocked for 2 h at 37°C. After the incubation, the inoculum was removed and the cells were washed once with PBS. Cells were then carefully overlaid with equal parts of 4 mL/well 1.6% ([…]) Difco Agar Noble (Becton, Dickinson & Co., Sparks, MD, USA) and 2× Eagle’s Minimum Essential Medium (EMEM; BioWhittaker) supplemented with 2×penicillin/streptomycin, 2× L-glutamine, and 10% FBS. The mixture also contained the compounds in the concentration ranges described above. Following incubation for 7 days at 37°C, plates were scanned with a Typhoon FLA 9000 imager (GE Healthcare Life Sciences) and the formed plaques were quantified with ImageJ ([Schneider et al., 2012]). Plaque counting was performed to calculate the 50% inhibitory concentration (IC50) of each compound using the statistical software GraphPad Prism 6.

[7] = system: HAdV-RFP; experiment: Direct interaction of rotenone with HAdV particles (pre-incubated virions, RFP expression); type: cell-based, human adenovirus (HAdV5); conditions: virions pre-incubated with 0.1 µM; 48 h; A549
Description: These treated virions were then added to A549 cells and incubated for 1 h on ice, to allow the HAdV particles to attach to the cells.

C=C(C)[C@H]1Cc2c(ccc3c2O[C@@H]2COc4cc(OC)c(OC)cc4[C@@H]2C3=O)O1 [Rotenone, (2R,6aS,12aS)-8,9-dimethoxy-2-(prop-1-en-2-yl)-1,2,12,12a-tetrahydrochromeno[3,4-b]furo[2,3-h]chromen-6-(6aH)-one]
CC50 at 48 h [1]: 0.6 ± 0.2 µM
time dependence of inhibitory activity ([2]; addition up to 2 h): sharp loss of inhibitory activity
loss of inhibitory activity ([2]; compound added at 10 min p.i.): more than 25%
loss of inhibitory activity ([2]; compound added at 40 min p.i.): more than 60%
estimated lethal dose [3]: 300 to 500 mg/kg
accessibility of HAdV genomes to the nucleus [4]: significantly blocked
colocalization of HAdV particles with the tubulin [5]: lower level of colocalization
IC50 ([6]; 168 h, read-out: IC50 plaque assay): 0.0039 ± 0.0001 µM
inhibition at 0.004 µM ([6]; read-out: inhibition of plaque formation): 67.8%
level of RFP inhibition, cells incubated with vs without rotenone after attachment [7]: no differences
